“Also recorded” adds a separate entry of the source. Structures can show the parent of a compound that is named as a salt. Each block holds one compound with its values, some of them ahead of it. Peptide text beside a SMILES is read from it. * marks the point of attachment. Cbz = O=C(OCc1ccccc1)*; CH2F = FC*
How the values were obtained:
[1] = tested on: BT-20; details: for induction of apoptosis by NF-κB blockers: PGA1 100 μM 20 hours, CAPE 50 μg/ml 17 hours, parthenolide 2.5 μg/ml 4 hours
[2] = tested on: MDA-MD-231; details: for induction of apoptosis by NF-κB blockers: PGA1 100 μM 20 hours, CAPE 50 μg/ml 17 hours, parthenolide 2.5 μg/ml 4 hours
[3] = tested on: JNK activation in 3DO cells; experiment: JNK activation by TNFα in 3DO cells (Western blots, JNK kinase assays); format: cell-based
Description: Plasmids were transfected as indicated along with pEGFP (Clontech). […] Inhibitors (Calbiochem) and concentrations are as indicated.
Northern blots were performed by standard procedures using 6 μg of total RNA. The EMSAs with the palindromic probes and the preparation of whole cell extracts were as previously described (Franzoso et al., 1992). For western blots, cell extracts were prepared either in a modified lysis buffer (50 mM Tris, pH 7.4, 100 mM NaCl, 50 mM NaF, 1 mM NaBo4, 30 mM pyrophosphate, 0.5% NP-40, and protease inhibitors (FIG. 1B; Boehringer Mannheim), in Triton X-100 buffer (FIG. 4A; Medema et al., 1997) or in a lysis buffer containing 1% NP-40 350 mM NaCl, 20 MM HEPES (pH 8.0), 20% glycerol, 1 mM MgCl2, 0.1 mM EGTA, 0.5 mM DTT, 1 mM Na3VO4, 50 mM NaF and protease inhibitors. Each time, equal amounts of proteins (ranging between 15 and 50 μg) were loaded and Western blots prepared according to standard procedures. Reactions were visualized by ECL (Amersham). Antibodies were as follows: IκBα, Bid, and β-actin from Santa Cruz Biotechnology; caspase-6, -7 and -9, phospho and total -p38, phosph and total -ERK, phospho and total -JNK from Cell Signaling Technology; caspase-8 from Alexis; Caspase-2 and -3 from R&D systems. The Gadd45β-specific antibody was generated against an N-Terminal peptide. Kinase assays were performed with recombinant GST-c-jun and anti-JNK antibodies (Pharmingen), (Lin et al., 1995).

[4] = in vivo, cited from earlier work
[5] = tested on: 3DO-IκBαM cells; experiment: Survival of 3DO-IκBαM cells pretreated with MAPK inhibitors, then TNFα; details: TNFα 25 U/ml 12 hours
Description: FIG. 5a: Kinetics of JNK activation by TNKα (1000 U/ml) in 3DO—IκBαM and 3DO-Neo clones. Western blots with antibodies specific for phosphorylated (P) or total JNK (top and middle, respectively) and JNK kinase assays (bottom). […] CHX treatments were carried out for 30 minutes in addition to the indicated time. FIG. 5d: Survival of transfected RelA−/− MEFs following treatment with TNFα (1000 U/ml) plus CHX ([…]) for 10 hours. Plasmids were transfected as indicated along with pEGFP (Clontech). FIG. 5e: Survival of 3DO-IκBαM cells pretreated with MAPK inhibitors for 30 minutes and then incubated with either TNFα (25 U/ml) or PBS for an additional 12 hours. Inhibitors (Calbiochem) and concentrations are as indicated. In (d) and (e), values represent the mean of three independent experiments.
MEF and 3DO cells were cultured in 10% Fetal bovine serum-supplemented DMEM and RPMI, respectively. Transient transfections in RelA−/− MEF were performed by Superfect according to the manufacturer's instructions (Qiagen). After cytotoxic treatment with CHX (Sigma) plus or minus TNFα (Peprotech), adherent cells were counted and analyzed by FCM (FACSort, Becton Dickinson) to assess numbers of live GFP^+ cells. To generate 3DO stable lines, transfections were carried out by electroporatoration (BTX) and clones were grown in appropriate selection media containing Geneticin (Gibco) and/or Hygromycin (Invitrogen). […] Daunorubicin, PMA, Ionomycin, hydrogen peroxide, and sorbitol were from Sigma; Cisplatin (platinol AQ) was from VHAplus, PD98059 and SB202190 were from Calbiochem.

[6] = molecular target: T1, JNKK2/MKK7 (Homo sapiens, UniProt O14733, Q133P/Q94H); experiment: Kinase assay of immunoprecipitated FLAG-JNKK2/MKK7 (GST-JNK1 substrate) pre-incubated with recombinant Gadd45β proteins or peptides; format: biochemical; details: active MKK7 from TNFα-activated 293 cells, GST-JNK1 substrate
T1 construct: expressed in transfected cells; host or cells: HEK-293, TNFα-treated or untreated; anti-FLAG immunoprecipitate
T1 sequence (O14733 1-401 Q94H/Q133P limits assumed): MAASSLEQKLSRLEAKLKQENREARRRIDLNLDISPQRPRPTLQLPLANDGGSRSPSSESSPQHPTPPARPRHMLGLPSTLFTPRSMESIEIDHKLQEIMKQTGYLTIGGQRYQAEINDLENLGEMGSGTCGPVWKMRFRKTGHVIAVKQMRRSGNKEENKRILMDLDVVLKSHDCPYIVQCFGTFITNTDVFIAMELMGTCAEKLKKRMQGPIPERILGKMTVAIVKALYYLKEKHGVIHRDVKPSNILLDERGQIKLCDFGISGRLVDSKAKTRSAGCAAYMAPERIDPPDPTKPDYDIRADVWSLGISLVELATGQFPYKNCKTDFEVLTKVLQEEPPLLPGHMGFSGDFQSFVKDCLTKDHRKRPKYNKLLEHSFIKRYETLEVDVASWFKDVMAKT
Description: Next, the functional consequences, in vitro, of the physical interactions of Gadd45β with kinases in the JNK pathway were assessed. Murine and human, full-length Gadd45J3 proteins were purified from E. coli as GST-Gadd45β and His6-tagged Gadd45β (His6 disclosed as SEQ ID NO: 46), respectively, according to standard procedures. Prior to employing these proteins in in vitro assays, purity of all recombinant polypeptides was assured by >98%, by performing Coomassie blue staining of SDS polyacrylamide gels. Then, the ability of these proteins, as well as of control GST and His6-EF3 (His6 disclosed as SEQ ID NO: 46)proteins, to inhibit kinases in the JNK pathways was monitored in vitro. FLAG-tagged JNKK2, JNKK1, MKK3, and ASK1 were immunoprecipitated from transiently transfected 293 cells using anti-FLAG antibodies and pre-incubated for 10 minutes with increasing concentrations of recombinant proteins, prior to the addition of specific kinase substrates (i.e. GST-JNK1 with JNKK1 and JNKK2; GST-p38[…] with MKK3; GST-JNNK1 or GST-JNKK2 with ASK1). […] These findings indicate that, upon binding to Gadd45β, JNKK2 is effectively inactivated.
A question was whether Gadd45β inhibited active MKK7, in vitro. FLAG-MKK7 was immunoprecipitated from TNFα-treated or untreated 293 cells, and kinase assays were performed in the presence of purified His6-Gadd45β (His6 disclosed as SEQ ID NO: 46), GST-Gadd45β, or control proteins (FIG. 28d; see also FIG. 28g). […] Consistent with the in vivo findings (FIG. 27), the inhibitory activity of Gadd45β was specific. […] Indeed, the effects of Gadd45β on MKK7 phosphorylation by TNFα may be due inhibition of the MKK7 ability to auto-phoshorylate and/or to serve as substrate for upstream kinases. Altogether, the findings identify MKK7 as a target of Gadd45β, and of NF-[…]B, in the JNK cascade. Of interest, MKK7 is a selective activator of JNK, and its ablation abolishes JNK activation by TNFα. Thus, blockade of MKK7 is sufficient on its own to explain the effects of Gadd45β on JNK signaling—i.e. its specific and near-complete suppression of this signaling.
Active MKK7 was immunoprecipitated from TNFα-activated 293 cells and MKK7 kinase assays were performed using GST-JNK1 substrates and pure recombinant Gadd45β polypeptides (FIG. 37B; a schematic diagram representing the Gadd45βpolypeptides used is shown in FIG. 37A). […] MKK7 kinase assays were performed as in FIG. 37B, except that pure synthetic Gadd45, peptides (whose sequences are shown in FIG. 37C) were used instead of pure recombinant Gadd45β proteins. The amino acid region between amino acids 58 and 77 of Gadd45βis used for the Gadd45β-mediated inhibition of MKK7. […]

[7] = concomitant treatment with PGA1, CAPE or parthenolide

Compound: O=C(/C=C/c1ccc(O)c(O)c1)OCCc1ccccc1 [CAPE]
- induction of apoptosis by NF-κB blockers [1]: induced apoptosis rapidly
- induction of apoptosis by NF-κB blockers [2]: induced apoptosis rapidly

Compound: C[C@@H]1C[C@@H]([C@H](O)CC2CC(=O)NC(=O)C2)C(=O)[C@@H](C)C1 [CHX, cycloheximide]
- JNK activation by agent alone ([3]; 3DO cells, CHX alone): no effect
- down-regulation of TNFα-induced JNK ([3]; parental 3DO cells, TNFα 1000 U/ml plus CHX 10 μg/ml): impaired

Compound: N.N.[Cl][Pt][Cl] [Cisplatin]
- oral absorption [4]: not absorbed orally

Compound: COc1cccc(-c2cc(=O)c3ccccc3o2)c1N [PD98059]
- antagonism of TNFα cytotoxicity ([5]; 30 min pretreatment): could not antagonize

Compound: Oc1ccc(-c2nc(-c3ccncc3)c(-c3ccc(F)cc3)[nH]2)cc1 [SB202190]
- cell survival under TNFα ([5]; high concentrations, 50 μM): dramatically enhanced cell survival; also recorded: rescues
- antagonism of TNFα cytotoxicity ([5]; low concentrations, 5 μM and lower): could not antagonize

Compound: Oc1c2ccccc2c2c3c(cccc13)N=N2 [SP600125]
- rescue from cytotoxicity induced by inhibition of NF-κB [1, 7]: can be rescued; also recorded: dramatically rescued
- rescue from cytotoxicity induced by inhibition of NF-κB [2, 7]: can be rescued; also recorded: dramatically rescued

Compound: COc1cccc2c1C(=O)c1c(O)c3c(c(O)c1C2=O)C[C@@](O)(C(C)=O)C[C@@H]3O[C@H]1C[C@H](N)[C@H](O)[C@H](C)O1 [daunorubicin, 5,12-Naphthacenedione, (8S-cis)-8-acetyl-10-[(3-amino-2,3,6-trideoxy-a-L-lyxo-hexanopyranosyl)oxy]-7,8,9,10-tetrahydro-6,8,11-trihydroxy-10-methoxy-, hydrochloride]
- oral absorption [4]: poor
- half-life of elimination [4]: about 19 hr
- secreted into the bile [4]: ~40%

Compound: COc1cccc2c1C(=O)c1c(O)c3c(c(O)c1C2=O)C[C@@](O)([C@H](C)O)C[C@@H]3O[C@H]1C[C@H](N)[C@H](O)[C@H](C)O1 [daunorubicinol]
- half-life of active metabolite [4]: about 27 hr

Compound: CCCCC[C@H](O)/C=C/[C@H]1C=CC(=O)[C@@H]1CCCCCCC(=O)O [prostaglandin A1]
- induction of apoptosis by NF-κB blockers [1]: induced apoptosis rapidly
- induction of apoptosis by NF-κB blockers [2]: induced apoptosis rapidly

Compound: COC(=O)C[C@H](NC(=O)[C@H](C)NC(=O)[C@@H](NC(=O)OCc1ccccc1)C(C)C)C(=O)CF [zVAD-fik] (Cbz-Val-Ala-Asp(OMe)-CH2F)
- late (160 minutes, caspase-dependent) rise of JNK activation by TNFα ([3]; IκBαM-Hygro 3DO clones): could be prevented

- inhibition of MKK7 activity by Gadd45β-derived peptides / polypeptide regions [6]: sufficient to also inhibit MKK7 activity
Compound: AIDEEEEDDIALQIHFTLIQSFCCDND [amino acids 60-86, positions 60-86 of Gadd45β]

Reference: patent US7326418B2, “Identification of novel factors that block programmed cell death or apoptosis by targeting JNK” (University of Chicago, priority 2001, dated 2008)
